Values after ≈ are worked out from the molar mass of the structure shown. Active and inactive are the calls of the source.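 The calls were made as follows: active = compounds whose lowest dose cutting E. coli growth over twofold at 37 C is below a set limit; inactive = the rest.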
Tested on: E. coli growth, OD530, overnight, 37 C
Test: antibacterial MIC against E. coli – 37 and 42 C, DnaK modulator project, SAR follow-up (AID 1503)
[1] = measured here: E. coli MIC at 42 C

**Q.** Which MIC does the source give for CC(Cc1ccc(F)cc1)NC(=O)c1cccs1 (configuration not stated) here?
**A.** > 10 mM (inactive)

**Q.** What about the MIC [1] of the same compound?
**A.** > 10 mM

**Q.** Which MIC does the source give for Cc1ccc(C(=O)NCc2ccc(F)cc2)o1 here?
**A.** > 4 mM (inactive)

**Q.** Which MIC does the source give for Nc1ccc2c(ccn2C(=O)c2cccs2)c1 here?
**A.** < 4 mM (inactive)

**Q.** What about the MIC [1] of the same compound?
**A.** > 4 mM

**Q.** For Cc1ccc(C(=O)NCc2ccc(Cl)cc2)o1, which MIC is on record?
**A.** > 4 mM (inactive)

**Q.** For O=C(NCc1ccccc1Br)c1cccs1, which MIC is on record?
**A.** > 4 mM (inactive)

**Q.** Which results are given for O=C(Nc1ccc2[nH]ccc2c1)c1cccs1?
**A.** MIC: 0.4 mM (≈ 96.9 µg/mL); MIC [1]: 0.4 mM (≈ 96.9 µg/mL)

**Q.** With O=C(NCc1ccccc1F)c1cccs1 as the compound, how does the MIC read?
**A.** > 4 mM (inactive)

**Q.** Which results are given for Cc1ccc(CNC(=O)c2ccc([N+](=O)[O-])o2)cc1?
**A.** MIC: 0.25 mM (≈ 65.1 µg/mL); MIC [1]: 0.25 mM (≈ 65.1 µg/mL)

Reference: PubChem BioAssay AID1503 (Sanford-Burnham Center for Chemical Genomics, 2009)
